Literature values as cited in patent US11986533B2, “Macromonomers and bottle brush polymers for delivery of biological agents” (Regents of the University of Minnesota, priority 2021, dated 2024).

log P: 2.14
SMILES: O=C1NC(=O)C(c2ccccc2)(c2ccccc2)N1 [phenytoin]
